From patent US20230114728A1 (Venatorx Pharmaceuticals, Inc., priority 2019, published 2023)
In brackets after ≈: the same amount, converted by molar mass.

Experiments:
[1] = Bocillin-FL fluorescence polarization competition binding assay, A. baumannii PBP3; settings: fluorescence polarization competition binding assay using Bocillin-FL; column 3; read-out: 4. baumannii PBP1a Potency
Summary of the method: (§1)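 Fluorescence polarization (ex 490/em 520 nm) competition of inhibitors against Bocillin-FL at 0.1 μM, read up to 60 min. Final PBP levels: E. coli PBP3 1.5 μM; A. baumannii PBP2 2.5 μM, PBP3 0.2 μM in Tris pH 8.0/NaCl/glycerol/Tween 20; N. gonorrhoeae PBP2 […] in Hepes pH 8.0/NaCl/glycerol. EC50 = concentration halving PBP-bound Bocillin-FL.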

[2] = system: P. aeruginosa CDC-0090 producing KPC-5, OXA-50, and PAO; assay: Broth microdilution MIC in iron-depleted CAMHB (IDM); format: cell-based; settings: Pseudomonas aeruginosa, read-out: Minimum Inhibitory Concentration, P. aeruginosa CDC-0090
Summary of the method: (§2)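 MIC read by eye as the lowest concentration with no bacterial growth, following CLSI microdilution in iron-depleted cation-adjusted Mueller-Hinton broth at pH 7.3. Starting inoculum 2-8×10^5 CFU/mL; incubation 37° C, 16-20 h for Pseudomonas, 20-24 h for Acinetobacter.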

[3] = system: P. aeruginosa CDC-0095 producing OXA-50, and PAO; assay: as above; format: cell-based; settings: Pseudomonas aeruginosa, read-out: Minimum Inhibitory Concentration, P. aeruginosa CDC-0095
Summary of the method: as §2

[4] = system: A. baumannii CDC-0045 producing TEM-1D, OXA-23, and OXA-69; assay: as above; format: cell-based; settings: Acinetobacter baumannii, read-out: Minimum Inhibitory Concentration, CDC-0045
P. aeruginosa CDC-0110 = assay: as above; format: cell-based; settings: Pseudomonas aeruginosa, CDC0110, read-out: Minimum Inhibitory Concentration, P. aeruginosa CDC-0110
Summary of the method: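 CLSI broth microdilution in iron-depleted cation-adjusted Mueller Hinton broth (Chelex-treated, Ca, Mg, Zn restored, pH 7.3), inoculum 2-8×10^5 CFU/mL, 2-fold compound dilutions. Pseudomonas plates incubated 16-20 h at 37 °C; MIC read visually as lowest concentration without growth.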

N. gonorrhoeae PBP2 = target: T1, N. gonorrhoeae PBP2 (Neisseria gonorrhoeae, UniProt P08149); assay: Bocillin-FL fluorescence polarization competition binding assay, N. gonorrhoeae PBP2; settings: fluorescence polarization competition binding assay using Bocillin-FL; read-out: N. gonorrhoeae PBP2 Potency
T1 construct: made in house
Summary of the method: as §1

T1 sequence (P08149 whole entry): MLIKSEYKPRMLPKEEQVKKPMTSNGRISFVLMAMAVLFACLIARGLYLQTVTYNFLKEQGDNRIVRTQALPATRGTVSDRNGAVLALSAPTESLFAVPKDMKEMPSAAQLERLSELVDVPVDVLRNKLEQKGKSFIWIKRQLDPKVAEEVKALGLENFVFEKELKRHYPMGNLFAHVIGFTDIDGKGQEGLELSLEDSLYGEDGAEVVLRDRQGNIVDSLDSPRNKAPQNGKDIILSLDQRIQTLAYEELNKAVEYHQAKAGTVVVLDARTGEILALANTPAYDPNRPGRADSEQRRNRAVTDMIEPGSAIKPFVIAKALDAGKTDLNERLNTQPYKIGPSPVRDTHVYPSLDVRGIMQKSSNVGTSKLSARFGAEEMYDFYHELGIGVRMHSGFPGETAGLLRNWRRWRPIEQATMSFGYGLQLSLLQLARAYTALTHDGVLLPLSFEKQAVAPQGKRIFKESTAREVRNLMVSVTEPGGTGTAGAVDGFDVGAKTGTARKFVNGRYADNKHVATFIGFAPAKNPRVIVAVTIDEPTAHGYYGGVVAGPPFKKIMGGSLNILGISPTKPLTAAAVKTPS

CCN1CCN(C(=O)N[C@@H](C(=O)N[C@H]2Cc3ccc(F)c(C(=O)O)c3OB2O)c2c(Cl)cc(O)c(O)c2F)C(=O)C1=O (single isomer, unassigned) [Example 207]
EC50 [1]: 10 to 30 µM
MIC [2]: 2 to 4 µg/mL (≈ 3.27 to 6.55 µM)
MIC [3]: 8 to 16 µg/mL (≈ 13.1 to 26.2 µM)
MIC [4]: > 128 µg/mL
MIC (P. aeruginosa CDC-0110): 2 to 4 µg/mL (≈ 3.27 to 6.55 µM)

CCN1CCN(C(=O)NC(C(=O)N[C@H]2Cc3cccc(C(=O)O)c3OB2O)c2ccc(C(=O)O)c(O)c2)C(=O)C1=O (stereo partly drawn) [Example 196, (3R)-3-(2-(4-carboxy-3-hydroxyphenyl)-2-(4-ethyl-2,3-dioxopiperazine-1-carboxamido)acetamido)-2-hydroxy-3,4-dihydro-2H-benzo[e][1,2]oxaborinine-8-carboxylic acid]
EC50 (N. gonorrhoeae PBP2): < 10 µM

NCCN1CCN(C(=O)N[C@@H](C(=O)N[C@H]2Cc3ccc(F)c(C(=O)O)c3OB2O)c2c(F)c(F)c(O)c(O)c2Cl)C(=O)C1=O [Example 226, (R)-3-((R)-2-(4-(2-aminoethyl)-2,3-dioxopiperazine-1-carboxamido)-2-(2-chloro-5,6-difluoro-3,4-dihydroxyphenyl)acetamido)-7-fluoro-2-hydroxy-3,4-dihydro-2H-benzo[e][1,2]oxaborinine-8-carboxylic acid]
EC50 [1]: > 100 µM
MIC [3]: 2 to 4 µg/mL (≈ 3.11 to 6.21 µM)
MIC [4]: 8 to 16 µg/mL (≈ 12.4 to 24.9 µM)
MIC (P. aeruginosa CDC-0110): 0.5 to 1 µg/mL (≈ 0.777 to 1.55 µM)

CCN1CCN(C(=O)NC(C(=O)N[C@H]2Cc3cccc(C(=O)O)c3OB2O)c2ccc(O)c(Cl)c2F)C(=O)C1=O (stereo partly drawn) [Example 185, (3R)-3-(2-(3-chloro-2-fluoro-4-hydroxyphenyl)-2-(4-ethyl-2,3-dioxopiperazine-1-carboxamido)acetamido)-2-hydroxy-3,4-dihydro-2H-benzo[e][1,2]oxaborinine-8-carboxylic acid]
EC50 (N. gonorrhoeae PBP2): < 10 µM

CCN1CCN(C(=O)NC(C(=O)N[C@H]2Cc3cccc(C(=O)O)c3OB2O)c2c(F)cc(NC(C)=O)cc2F)C(=O)C1=O (stereo partly drawn) [Example 188, (3R)-3-(2-(4-acetamido-2,6-difluorophenyl)-2-(4-ethyl-2,3-dioxopiperazine-1-carboxamido)acetamido)-2-hydroxy-3,4-dihydro-2H-benzo[e][1,2]oxaborinine-8-carboxylic acid]
EC50 [1]: < 10 µM
EC50 (N. gonorrhoeae PBP2): < 10 µM

NCCN1CCN(C(=O)N[C@@H](C(=O)N[C@H]2Cc3cccc(C(=O)O)c3OB2O)c2c(O)cc(O)cc2F)C(=O)C1=O (single isomer, unassigned) [Example 194]
EC50 (N. gonorrhoeae PBP2): 30 to 100 µM

NCCN1CCN(C(=O)N[C@H](C(=O)N[C@H]2Cc3cccc(C(=O)O)c3OB2O)c2ccc(O)c(Cl)c2F)C(=O)C1=O (single isomer, unassigned) [Example 187]
EC50 (N. gonorrhoeae PBP2): 10 to 30 µM

O=C(NCCCN1CCN(C(=O)NC(C(=O)N[C@H]2Cc3ccc(F)c(C(=O)O)c3OB2O)c2ncc(O)cc2F)C(=O)C1=O)c1ccc(O)c(O)c1Cl (stereo partly drawn) [Example 3, (3R)-3-(2-(4-(3-(2-chloro-3,4-dihydroxybenzamido)propyl)-2,3-dioxopiperazine-1-carboxamido)-2-(3-fluoro-5-hydroxypyridin-2-yl)acetamido)-7-fluoro-2-hydroxy-3,4-dihydro-2H-benzo[e][1,2]oxaborinine-8-carboxylic acid]
EC50 [1]: < 10 µM
MIC [2]: 8 to 16 µg/mL (≈ 10.5 to 21 µM)
MIC [3]: 8 to 16 µg/mL (≈ 10.5 to 21 µM)
MIC [4]: 32 to 64 µg/mL (≈ 42.1 to 84.1 µM)
MIC (P. aeruginosa CDC-0110): 2 to 4 µg/mL (≈ 2.63 to 5.26 µM)

CCN1CCN(C(=O)N[C@@H](C(=O)N[C@H]2Cc3cccc(C(=O)O)c3OB2O)c2c(O)cc(O)cc2F)C(=O)C1=O (single isomer, unassigned) [Example 182]
EC50 [1]: > 100 µM
EC50 (N. gonorrhoeae PBP2): > 100 µM

Nc1nc(C(NC(=O)N2CCN(CCNC(=O)c3ccc(O)c(O)c3Cl)C(=O)C2=O)C(=O)N[C@H]2Cc3ccc(F)c(C(=O)O)c3OB2O)c(F)s1 (stereo partly drawn) [Example 4, (3R)-3-(2-(2-amino-5-fluorothiazol-4-yl)-2-(4-(2-(2-chloro-3,4-dihydroxybenzamido)ethyl)-2,3-dioxopiperazine-1-carboxamido)acetamido)-7-fluoro-2-hydroxy-3,4-dihydro-2H-benzo[e][1,2]oxaborinine-8-carboxylic acid]
MIC [2]: 0.25 µg/mL (≈ 0.333 µM)
MIC [3]: 0.5 to 1 µg/mL (≈ 0.665 to 1.33 µM)
MIC [4]: 2 to 4 µg/mL (≈ 2.66 to 5.32 µM)
MIC (P. aeruginosa CDC-0110): 0.25 µg/mL (≈ 0.333 µM)

CCN1CCN(C(=O)NC(C(=O)N[C@H]2Cc3cccc(C(=O)O)c3OB2O)c2cc(C#N)c(OC)cc2F)C(=O)C1=O (stereo partly drawn) [Example 192, (3R)-3-(2-(5-cyano-2-fluoro-4-methoxyphenyl)-2-(4-ethyl-2,3-dioxopiperazine-1-carboxamido)acetamido)-2-hydroxy-3,4-dihydro-2H-benzo[e][1,2]oxaborinine-8-carboxylic acid]
EC50 (N. gonorrhoeae PBP2): 10 to 30 µM

NCCN1CCN(C(=O)N[C@@H](C(=O)N[C@H]2Cc3cccc(C(=O)O)c3OB2O)c2ccc(O)c([N+](=O)[O-])c2)C(=O)C1=O (single isomer, unassigned) [Example 199]
EC50 (N. gonorrhoeae PBP2): 10 to 30 µM

NCCCN1CCN(C(=O)N[C@@H](C(=O)N[C@H]2Cc3cccc(C(=O)O)c3OB2O)c2c(O)cc(O)cc2F)C(=O)C1=O (single isomer, unassigned) [Example 195]
EC50 (N. gonorrhoeae PBP2): 10 to 30 µM

CCN1CCN(C(=O)N[C@H](C(=O)N[C@H]2Cc3cccc(C(=O)O)c3OB2O)c2ccc(C(=O)O)c(F)c2Cl)C(=O)C1=O (single isomer, unassigned) [Example 202]
EC50 (N. gonorrhoeae PBP2): > 100 µM

CCN1CCN(C(=O)NC(C(=O)N[C@H]2Cc3cccc(C(=O)O)c3OB2O)c2ccc(C(=O)O)c(Cl)c2Cl)C(=O)C1=O (stereo partly drawn) [Example 201, (3R)-3-(2-(4-carboxy-2,3-dichlorophenyl)-2-(4-ethyl-2,3-dioxopiperazine-1-carboxamido)acetamido)-2-hydroxy-3,4-dihydro-2H-benzo[e][1,2]oxaborinine-8-carboxylic acid]
EC50 (N. gonorrhoeae PBP2): 10 to 30 µM

CCN1CCN(C(=O)NC(C(=O)N[C@H]2Cc3cccc(C(=O)O)c3OB2O)c2cc([N+](=O)[O-])c(O)cc2F)C(=O)C1=O (stereo partly drawn) [Example 184, (3R)-3-(2-(4-ethyl-2,3-dioxopiperazine-1-carboxamido)-2-(2-fluoro-4-hydroxy-5-nitrophenyl)acetamido)-2-hydroxy-3,4-dihydro-2H-benzo[e][1,2]oxaborinine-8-carboxylic acid]
EC50 (N. gonorrhoeae PBP2): < 10 µM

CCN1CCN(C(=O)N[C@@H](C(=O)N[C@H]2Cc3cccc(C(=O)O)c3OB2O)c2ccc(C(=O)O)c(F)c2Cl)C(=O)C1=O (single isomer, unassigned) [Example 203]
EC50 (N. gonorrhoeae PBP2): < 10 µM

NCCN1CCN(C(=O)N[C@@H](C(=O)N[C@H]2Cc3cccc(C(=O)O)c3OB2O)c2ccc(O)c(Cl)c2F)C(=O)C1=O (single isomer, unassigned) [Example 186]
EC50 (N. gonorrhoeae PBP2): < 10 µM

NCCCN1CCN(C(=O)NC(C(=O)N[C@H]2Cc3cccc(C(=O)O)c3OB2O)c2c(F)cc(O)cc2F)C(=O)C1=O (stereo partly drawn) [Example 183, (3R)-3-(2-(4-(3-aminopropyl)-2,3-dioxopiperazine-1-carboxamido)-2-(2,6-difluoro-4-hydroxyphenyl)acetamido)-2-hydroxy-3,4-dihydro-2H-benzo[e][1,2]oxaborinine-8-carboxylic acid]
EC50 (N. gonorrhoeae PBP2): < 10 µM

O=C(O)c1cccc2c1OB(O)[C@@H](NC(=O)C(NC(=O)N1CCN(CC3CNC3)C(=O)C1=O)c1c(F)cc(O)cc1F)C2 (stereo partly drawn) [Example 193, (3R)-3-(2-(4-(azetidin-3-ylmethyl)-2,3-dioxopiperazine-1-carboxamido)-2-(2,6-difluoro-4-hydroxyphenyl)acetamido)-2-hydroxy-3,4-dihydro-2H-benzo[e][1,2]oxaborinine-8-carboxylic acid]
EC50 (N. gonorrhoeae PBP2): 10 to 30 µM

NCCN1CCN(C(=O)N[C@H](C(=O)N[C@H]2Cc3cccc(C(=O)O)c3OB2O)c2ccc(O)c([N+](=O)[O-])c2)C(=O)C1=O (single isomer, unassigned) [Example 200]
EC50 (N. gonorrhoeae PBP2): > 100 µM
